From PubChem BioAssay AID1259407 (Chemical Carcinogenesis Research Information System (CCRIS), 2018)
Activity calls are given as the source filed them. How the calls were made is not given here.

System: CCRIS mutagenicity, Ames/micronucleus/aberration tests
Experiment: CCRIS mutagenicity studies

Nc1ccc(-c2ccccc2)cc1
mutagenic call (Test System: AMES SALMONELLA TYPHIMURIUM, Strain/Indicator: TA100, Metabolic Activation: TOBACCO CELL-FREE TXIMX, Method: PREINCUBATION): active; positive | mutagenic call (Test System: AMES SALMONELLA TYPHIMURIUM, Strain/Indicator: TA1535, Metabolic Activation: NONE, Method: STANDARD PLATE): inactive; negative | mutagenic call (Test System: AMES SALMONELLA TYPHIMURIUM, Strain/Indicator: TA1537, Metabolic Activation: RAT, LIVER, S-9, AROCLOR 1254, Method: STANDARD PLATE): active; positive | mutagenic call (Test System: AMES SALMONELLA TYPHIMURIUM, Strain/Indicator: TA1538, Metabolic Activation: GUINEA PIG, LIVER, INTACT HEPATOCYTES, Method: PREINCUBATION): active; positive | mutagenic call (Test System: AMES SALMONELLA TYPHIMURIUM, Strain/Indicator: TA1538, Metabolic Activation: GUINEA PIG, LIVER, S-9, ACETYL COENZYME A, Method: PREINCUBATION): active; positive | mutagenic call (Test System: AMES SALMONELLA TYPHIMURIUM, Strain/Indicator: TA1538, Metabolic Activation: GUINEA PIG, LIVER, S-9, Method: PREINCUBATION): active; positive | mutagenic call (Test System: AMES SALMONELLA TYPHIMURIUM, Strain/Indicator: TA1538, Metabolic Activation: HAMSTER, LIVER, INTACT HEPATOCYTES, Method: PREINCUBATION): inactive; negative | mutagenic call (Test System: AMES SALMONELLA TYPHIMURIUM, Strain/Indicator: TA1538, Metabolic Activation: HAMSTER, LIVER, S-9, ACETYL COENZYME A, Method: PREINCUBATION): active; positive | mutagenic call (Test System: AMES SALMONELLA TYPHIMURIUM, Strain/Indicator: TA1538, Metabolic Activation: HAMSTER, LIVER, S-9, Method: PREINCUBATION): active; positive | mutagenic call (Test System: AMES SALMONELLA TYPHIMURIUM, Strain/Indicator: TA1538, Metabolic Activation: RAT, LIVER, INTACT HEPATOCYTES, Method: PREINCUBATION): active; positive | mutagenic call (Test System: AMES SALMONELLA TYPHIMURIUM, Strain/Indicator: TA1538, Metabolic Activation: RAT, LIVER, S-9, ACETYL COENZYME A, Method: PREINCUBATION): active; positive | mutagenic call (Test System: AMES SALMONELLA TYPHIMURIUM, Strain/Indicator: TA1538, Metabolic Activation: RAT, LIVER, S-9, AROCLOR 1254, Method: STANDARD PLATE): active; positive | mutagenic call (Test System: AMES SALMONELLA TYPHIMURIUM, Strain/Indicator: TA1538, Metabolic Activation: RAT, LIVER, S-9, KC500 OR PHENOBARBITAL, Method: LIQUID SUSPENSION): active; positive | mutagenic call (Test System: AMES SALMONELLA TYPHIMURIUM, Strain/Indicator: TA1538, Metabolic Activation: RAT, LIVER, S-9, PHENOBARBITAL, Method: STANDARD PLATE): active; positive | mutagenic call (Test System: AMES SALMONELLA TYPHIMURIUM, Strain/Indicator: TA1538, Metabolic Activation: RAT, LIVER, S-9, Method: PREINCUBATION): active; positive | mutagenic call (Test System: AMES SALMONELLA TYPHIMURIUM, Strain/Indicator: YG1021, Metabolic Activation: TOBACCO CELL-FREE TXIMX, Method: PREINCUBATION): active; positive | mutagenic call (Test System: AMES SALMONELLA TYPHIMURIUM, Strain/Indicator: YG1021, Metabolic Activation: TOBACCO TX1 CELLS, Method: PREINCUBATION): active; positive | mutagenic call (Test System: AMES SALMONELLA TYPHIMURIUM, Strain/Indicator: YG1024, Metabolic Activation: HUMAN, UROEPITHELIAL CELL, MICROSOMES, Method: PREINCUBATION): active; positive | mutagenic call (Test System: AMES SALMONELLA TYPHIMURIUM, Strain/Indicator: YG1024, Metabolic Activation: PLANT CELLS, Method: PREINCUBATION): active; positive | mutagenic call (Test System: AMES SALMONELLA TYPHIMURIUM, Strain/Indicator: YG1024, Metabolic Activation: TOBACCO CELL-FREE EXTRACT, Method: PREINCUBATION): active; positive | mutagenic call (Test System: AMES SALMONELLA TYPHIMURIUM, Strain/Indicator: YG1024, Metabolic Activation: TOBACCO CELL-FREE TXIMX, Method: PREINCUBATION): active; positive | mutagenic call (Test System: AMES SALMONELLA TYPHIMURIUM, Strain/Indicator: YG1024, Metabolic Activation: TOBACCO TX1 CELLS, Method: PREINCUBATION): active; positive | mutagenic call (Test System: AMES SALMONELLA TYPHIMURIUM, Strain/Indicator: YG1026, Metabolic Activation: TOBACCO CELL-FREE TXIMX, Method: PREINCUBATION): active; positive | mutagenic call (Test System: AMES SALMONELLA TYPHIMURIUM, Strain/Indicator: YG1026, Metabolic Activation: TOBACCO TX1 CELLS, Method: PREINCUBATION): inactive; negative | mutagenic call (Test System: AMES SALMONELLA TYPHIMURIUM, Strain/Indicator: YG1029, Metabolic Activation: MOUSE LIVER S-9, AROCLOR 1254, 10%, Method: PREINCUBATION): active; positive | mutagenic call (Test System: AMES SALMONELLA TYPHIMURIUM, Strain/Indicator: YG1029, Metabolic Activation: RAT LIVER S-9, AROCLOR 1254, 10%, Method: PREINCUBATION): active; positive | mutagenic call (Test System: AMES SALMONELLA TYPHIMURIUM, Strain/Indicator: YG1029, Metabolic Activation: TOBACCO CELL-FREE EXTRACT, Method: PREINCUBATION): active; positive | mutagenic call (Test System: AMES SALMONELLA TYPHIMURIUM, Strain/Indicator: YG1029, Metabolic Activation: TOBACCO CELL-FREE TXIMX, Method: PREINCUBATION): active; positive | mutagenic call (Test System: AMES SALMONELLA TYPHIMURIUM, Strain/Indicator: YG1029, Metabolic Activation: TOBACCO TX1 CELLS, Method: PREINCUBATION): active; positive | mutagenic call (Test System: Ames Salmonella Typhimurium, Strain/Indicator: TA102, Metabolic Activation: None, Method: Preincubation): inactive; negative | mutagenic call (Test System: Ames Salmonella typhimurium, Strain/Indicator: TA102, Metabolic Activation: Rat, liver, S-9, Aroclor 1254, 4%, Method: Preincubation): active; positive | mutagenic call (Test System: CHINESE HAMSTER OVARY, Strain/Indicator: CHO-K1-BH4 (HGPRT), Metabolic Activation: RAT, LIVER, S-9, AROCLOR, Method: SUSPENSION/PLATE): active; positive | mutagenic call (Test System: E. COLI, Strain/Indicator: WP2 UVRA(P), Metabolic Activation: NONE, Method: STANDARD PLATE): inactive; negative | mutagenic call (Test System: E. COLI, Strain/Indicator: WP2 UVRA, Metabolic Activation: NONE, Method: FLUCTUATION TEST): inactive; negative | mutagenic call (Test System: UDS RODENT HEPATOCYTES, Strain/Indicator: THY INCORP (NON-S-PHASE), Method: AUTORADIOGRAPHY): active; positive
